Molecular target: T1, His-hMAGL (recombinant polyhistidine tagged human MAGL protein) (Homo sapiens, UniProt Q99685)
T1 construct: made in house; host or cells: E. coli BL21(DE3)
T1 sequence (Q99685 1-303): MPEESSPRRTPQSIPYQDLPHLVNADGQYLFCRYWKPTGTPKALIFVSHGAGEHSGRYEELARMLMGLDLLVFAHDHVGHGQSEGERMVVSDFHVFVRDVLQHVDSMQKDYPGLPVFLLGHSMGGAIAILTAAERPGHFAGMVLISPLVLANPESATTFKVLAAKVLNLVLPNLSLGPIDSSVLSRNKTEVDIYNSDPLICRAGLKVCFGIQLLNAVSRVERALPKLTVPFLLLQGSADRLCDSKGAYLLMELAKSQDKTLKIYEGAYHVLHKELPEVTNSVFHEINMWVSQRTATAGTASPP
Test: Measurement of MAGL inhibitory activity (arachidonic acid production from 2-arachidonylglycerol, RapidFire-mass spectrometry)
Assay type: biochemical
Details: MAGL inhibitory rate at 10 μM test compound; 60 min preincubation with His-hMAGL, 2-arachidonylglycerol substrate, 10 min reaction at room temperature
Procedure, shortened: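 Inhibition (%) was derived from arachidonic acid levels relative to enzyme-free and compound-free groups. Product was measured by online C4 solid-phase extraction and triple-quadrupole MS in negative SRM mode, corrected by arachidonic acid-d8 (3 μM in the acetonitrile added). Substrate was 2-arachidonylglycerol; enzyme was His-tagged recombinant human MAGL.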

Row | inhibition at 10 µM [%] | SMILES
1 | 101 | O=C1COc2cc(F)c(C(=O)N3CC(OCc4ccc(F)cc4Cl)C3)cc2N1 [Example 322, 6-((3-((2-chloro-4-fluorobenzyl)oxy)azetidin-1-yl)carbonyl)-7-fluoro-2H-1,4-benzoxazin-3(4H)-one]
2 | 100 | O=C1COc2cc(F)c(C(=O)N3CC(COc4ccc(F)cc4Cl)C3)c(F)c2N1 [Example 281, 6-((3-((2-chloro-4-fluorophenoxy)methyl)azetidin-1-yl)carbonyl)-5,7-difluoro-2H-1,4-benzoxazin-3(4H)-one]
3 | 99 | Cn1ccc(-c2ccc(OCC3CN(C(=O)c4cc5c(cc4F)OCC(=O)N5)C3)c(F)c2)n1 [Example 252, 7-fluoro-6-((3-((2-fluoro-4-(1-methyl-1H-pyrazol-3-yl)phenoxy)methyl)azetidin-1-yl)carbonyl)-2H-1,4-benzoxazin-3(4H)-one]
4 | 99 | O=C1COc2cc(F)c(C(=O)N3CC(COC4CCC(F)(F)CC4)C3)cc2N1 [Example 282, 6-((3-(((4,4-difluorocyclohexyl)oxy)methyl)azetidin-1-yl)carbonyl)-7-fluoro-2H-1,4-benzoxazin-3(4H)-one]
5 | 96 | O=C1COc2cc(F)c(C(=O)N3CC(COc4ccc(-c5cnn(C(F)F)c5)cc4F)C3)cc2N1 [Example 247, 6-((3-((4-(1-(difluoromethyl)-1H-pyrazol-4-yl)-2-fluorophenoxy)methyl)azetidin-1-yl)carbonyl)-7-fluoro-2H-1,4-benzoxazin-3(4H)-one]
6 | 96 | Cn1cc(-c2ccc(OCC3CN(C(=O)c4cc5c(cc4F)OCC(=O)N5)C3)c(F)c2)cn1 [Example 246, 7-fluoro-6-((3-((2-fluoro-4-(1-methyl-1H-pyrazol-4-yl)phenoxy)methyl)azetidin-1-yl)carbonyl)-2H-1,4-benzoxazin-3(4H)-one]
7 | 100 | Cc1cc(-c2ccc(OCC3CN(C(=O)c4cc5c(cc4F)OCC(=O)N5)C3)c(F)c2)n(C)n1 [Example 259, 6-((3-((4-(1,3-dimethyl-1H-pyrazol-5-yl)-2-fluorophenoxy)methyl)azetidin-1-yl)carbonyl)-7-fluoro-2H-1,4-benzoxazin-3(4H)-one]
8 | 100 | O=C1COc2cc(F)c(C(=O)N3CC(COc4ccc(-c5ccncc5F)cc4F)C3)cc2N1 [Example 242, 7-fluoro-6-((3-((2-fluoro-4-(3-fluoropyridin-4-yl)phenoxy)methyl)azetidin-1-yl)carbonyl)-2H-1,4-benzoxazin-3(4H)-one]
9 | 101 | O=C1COc2cc(F)c(C(=O)N3CC(OCc4ccc(C(F)(F)F)cc4F)C3)cc2N1 [Example 345, 7-fluoro-6-((3-((2-fluoro-4-(trifluoromethyl)benzyl)oxy)azetidin-1-yl)carbonyl)-2H-1,4-benzoxazin-3(4H)-one]

Further lines, the compound ahead of its results:

Row | SMILES | inhibition at 10 µM [%]
10 | N#Cc1ccccc1OCC1CCN(C(=O)c2ccc3c(c2)NC(=O)CO3)CC1 [Example 30, 2-((1-((3-oxo-3,4-dihydro-2H-1,4-benzoxazin-6-yl)carbonyl)piperidin-4-yl)methoxy)benzonitriie] | 98
11 | Cc1nc2ccc(OCC3CN(C(=O)c4cc5c(cc4F)OCC(=O)N5)C3)cc2s1 [Example 152, 7-fluoro-6-((3-(((2-methyl-1,3-benzothiazol-6-yl)oxy)methyl)azetidin-1-yl)carbonyl)-2H-1,4-benzoxazin-3(4H)-one] | 101
12 | O=C1COc2cc(F)c(C(=O)N3CC(COc4ccc(Cl)cc4-c4cccnc4Cl)C3)cc2N1 [Example 198, 6-((3-((4-chloro-2-(2-chloropyridin-3-yl)phenoxy)methyl)azetidin-1-yl)carbonyl)-7-fluoro-2H-1,4-benzoxazin-3(4H)-one] | 100
13 | N#Cc1cc(OCC2CN(C(=O)c3cc4c(cc3F)OCC(=O)N4)C2)ccc1Cl [Example 133, 2-chloro-5-((1-((7-fluoro-3-oxo-3,4-dihydro-2H-1,4-benzoxazin-6-yl)carbonyl)azetidin-3-yl)methoxy)benzonitrile] | 98
14 | O=C1COc2cc(F)c(C(=O)N3CC(COc4ccc(Br)cc4)C3)cc2N1 [Example 182, 6-((3-((4-bromophenoxy)methyl)azetidin-1-yl)carbonyl)-7-fluoro-2H-1,4-benzoxazin-3(4H)-one] | 98
15 | O=C1COc2cc(F)c(C(=O)N3CC(COc4ccc(F)c(F)c4)C3)cc2N1 [Example 158, 6-((3-((3,4-difluorophenoxy)methyl)azetidin-1-yl)carbonyl)-7-fluoro-2H-1,4-benzoxazin-3(4H)-one] | 103
16 | O=C1COc2cc(F)c(C(=O)N3CC(COc4ccc5ccncc5c4)C3)cc2N1 [Example 172, 7-fluoro-6-((3-((isoquinolin-7-yloxy)methyl)azetidin-1-yl)carbonyl)-2H-1,4-benzoxazin-3(4H)-one] | 100
17 | O=C1COc2cc(F)c(C(=O)N3CCC(O)(COc4ccc(F)cc4Cl)CC3)cc2N1 [Example 73, 6-((4-((2-chloro-4-fluorophenoxy)methyl)-4-hydroxypiperidin-1-yl)carbonyl)-7-fluoro-2H-1,4-benzoxazin-3(4H)-one] | 102
18 | O=C1COc2ncc(C(=O)N3CCC(COc4cc(F)ccc4Cl)CC3)cc2N1 [Example 21, 7-((4-((2-chloro-5-fluorophenoxy)methyl)piperidin-1-yl)carbonyl)-1H-pyrido[2,3-b][1,4]oxazin-2(3H)-one] | 99
19 | Cn1nccc1-c1cc(Cl)ccc1OCC1CN(C(=O)c2cc3c(cc2F)OCC(=O)N3)C1 [Example 218, 6-((3-((4-chloro-2-(1-methyl-1H-pyrazol-5-yl)phenoxy)methyl)azetidin-1-yl)carbonyl)-7-fluoro-2H-1,4-benzoxazin-3(4H)-one] | 99
20 | O=C1COc2cc(F)c(C(=O)N3CC(COc4ccc(Cl)cc4C4=CCOCC4)C3)cc2N1 [Example 211, 6-((3-((4-chloro-2-(3,6-dihydro-2H-pyran-4-yl)phenoxy)methyl)azetidin-1-yl)carbonyl)-7-fluoro-2H-1,4-benzoxazin-3(4H)-one] | 101
21 | N#Cc1ccc(Cl)cc1OCC1CN(C(=O)c2cc3c(cc2F)OCC(=O)N3)C1 [Example 137, 4-chloro-2-((1-((7-fluoro-3-oxo-3,4-dihydro-2H-1,4-benzoxazin-6-yl)carbonyl)azetidin-3-yl)methoxy)benzonitrile] | 99
22 | O=C1COc2c(F)cc(C(=O)N3CCC(COc4ccc(F)cc4Cl)CC3)cc2N1 [Example 32, 6-((4-((2-chloro-4-fluorophenoxy)methyl)piperidin-1-yl)carbonyl)-8-fluoro-2H-1,4-benzoxazin-3(4H)-one] | 99
23 | O=C1COc2cc(F)c(C(=O)N3CC(COc4ccc(-c5cncc(F)c5)cc4F)C3)cc2N1 [Example 234, 7-fluoro-6-((3-((2-fluoro-4-(5-fluoropyridin-3-yl)phenoxy)methyl)azetidin-1-yl)carbonyl)-2H-1,4-benzoxazin-3(4H)-one] | 97
24 | CC(C)(O)c1cc(F)ccc1OCC1CCN(C(=O)c2cc3c(cc2F)OCC(=O)N3)CC1 [Example 91, 7-fluoro-6-((4-((4-fluoro-2-(2-hydroxypropan-2-yl)phenoxy)methyl)piperidin-1-yl)carbonyl)-2H-1,4-benzoxazin-3(4H)-one] | 99
25 | Cc1cc(C)c(OCC2CN(C(=O)c3cc4c(cc3F)OCC(=O)N4)C2)cn1 [Example 142, 6-((3-(((4,6-dimethylpyridin-3-yl)oxy)methyl)azetidin-1-yl)carbonyl)-7-fluoro-2H-1,4-benzoxazin-3(4H)-one] | 102
26 | O=C1COc2ncc(C(=O)N3CCC(COc4c(F)cccc4Cl)CC3)cc2N1 [Example 22, 7-((4-((2-chloro-6-fluorophenoxy)methyl)piperidin-1-yl)carbonyl)-1H-pyrido[2,3-b][1,4]oxazin-2(3H)-one] | 95
27 | O=C1COc2ccc(C(=O)N3CCC(COc4cccc(F)c4Cl)CC3)cc2N1 [Example 56, 6-((4-((2-chloro-3-fluorophenoxy)methyl)piperidin-1-yl)carbonyl)-2H-1,4-benzoxazin-3(4H)-one] | 101
28 | O=C1COc2ccc(C(=O)N3CCC(COc4ccc(Cl)nc4Cl)CC3)cc2N1 [Example 41, 6-((4-(((2,6-dichloropyridin-3-yl)oxy)methyl)piperidin-1-yl)carbonyl)-2H-1,4-benzoxazin-3(4H)-one] | 103
29 | O=C1COc2ccc(C(=O)N3CCC(COc4ccccc4)CC3)cc2N1 [Example 12, 6-((4-(phenoxymethyl)piperidin-1-yl)carbonyl)-2H-1,4-benzoxazin-3(4H)-one] | 99
30 | O=C1COc2cc(F)c(C(=O)N3CC(COc4ccc(Cl)cc4-c4ccncc4)C3)cc2N1 [Example 206, 6-((3-((4-chloro-2-(pyridin-4-yl)phenoxy)methyl)azetidin-1-yl)carbonyl)-7-fluoro-2H-1,4-benzoxazin-3(4H)-one] | 104

Same assay, conditions: MAGL inhibitory rate at 10 μM test compound; 60 min preincubation with His-hMAGL, 2-arachidonylglycerol substrate, 10 min reaction at room temperature; 10 µM

Row | % inhibition (10 μM) [%] | SMILES
31 | 101 | CC(Oc1ccc(F)cc1Cl)C1CCN(C(=O)c2cc3c(cc2F)OCC(=O)N3)CC1 (stereo not shown) [Example 296, 6-((4-(1-(2-chloro-4-fluorophenoxy)ethyl)piperidin-1-yl)carbonyl)-7-fluoro-2H-1,4-benzoxazin-3(4H)-one]

Source: patent publication US10106556B2, “Heterocyclic compound” (TAKEDA PHARMACEUTICAL COMPANY LIMITED, priority 2015, dated 2018)
